Assay results from patent US12043602B2, “Fendiline derivatives” (The Board of Regents of the University of Texas System, priority 2019, dated 2024).
Values joined by “and” are separate entries in the source; they are usually repeats but may differ in a detail not shown here. Equal values may be shown once. Read-outs that look alike come from different tables or passages of the source.

Columns and labels:
mGFP-K-RASG12V = mGFP-K-RASG12V (Homo sapiens (Human), UniProt P01116, G12V); experiment: K-Ras mislocalization assay (confocal microscopy, Manders coefficient); type: cell-based; parameters: key to Emax: Manders coefficient: fraction of mCherry-CAAX co-localizing with GFP-K-Ras; conditions: for IC50: 48 h treatment, read-out: IC50 (μM), KRASG12V mislocalization; for Emax: maximal effect, Manders coefficient
Method: Madine Darby Canine Kidney epithelial cells (MDCK) stably co-expressing mGFP-tagged full length oncogenic mutant K-Ras (GFP—K-RASG12V) or mGFP-LactC2 (peptide probe for phosphatidylserine) and mCherry-tagged to the amino acids 179-189 of H-RasC181S, C184S (mCherry-CAAX, localizes primarily to endomembranes) were grown in DMEM-high glucose/sodium pyruvate/10% FBS. The medium was supplemented with 1× Penicillin/Streptomycin for fluorescence microscopy assays, to avoid any microbial contamination from the test compounds added. KLE and Hec50 cells were maintained in DMEM-F-12 medium supplemented with 10% FBS. Hec-1A and Hec-1B cells were grown in McCoy's 5a medium supplemented with 10% FBS. ESS-1 cells were grown in RPMI 1640 medium supplemented with 20% FBS. MPanc96 cells were grown in DMEM supplemented with 10% FBS, MiaPaCa-2 cells in DMEM supplemented with 10% FBS and 2.5% horse serum and all other cell lines were grown in RPMI 1640 supplemented with 10% FBS. All cancer cell media were supplemented with ×Penicillin/Streptomycin. All cell lines were grown at 37° C. with 5% CO2.
MDCK co-expressing GFP—K-RASG12V or LactC2 and mCherry-CAAX were grown on coverslips, treated with 0.1% vehicle (DMSO) or various concentrations of drugs for 48 h, and fixed with 4% paraformaldehyde. The coverslips were mounted in mowiol and imaged by confocal microscopy (Nikon A1) using a 60× objective. Using ImageJ software v1.42q, images were converted to 8-bit, and a threshold to a control pixel of each image was set. As a measure of K-Ras/LactC2 mislocalization, the fraction of mCherry-CAAX co-localizing with mGFP-K-RASG12V was calculated using a Manders coefficient plugin downloaded from Wright Cell Image Facility. The fraction of mCherry-CAAX co-localizing with mGFP-RASG12V (Mander's coefficient) is proportional to K-Ras mislocalization.

[1] = test system: MDCK cells co-expressing GFP-K-RASG12V and mCherry-CAAX; experiment: Cytotoxicity in mislocalization screen (death of all cells in well); conditions: drug caused death of all cells in well at 30 μM
[2] = batch 4 compounds, MDCK cells, 48 h, title calls it IC50, read-out: EC50

Compound | Emax (mGFP-K-RASG12V; MDCK cells, 48 h) | Cytotoxic at 30 μM [1] | EC50 (mGFP-K-RASG12V; [2]) [µM] | further results
COc1ccc([C@H](C)N(CC=C(c2ccccc2)c2ccccc2)CCN2CCN(C)CC2)cc1 [NY0454, (S)-N-(1-(4-methoxyphenyl)ethyl)-N-(2-(4-methylpiperazin-1-yl)ethyl)-3,3-diphenylprop-2-en-1-amine] | 0.827 | Yes | – | IC50 (mGFP-K-RASG12V; MDCK cells, listed as 15a): 1.2 µM; IC50 (mGFP-K-RASG12V; MDCK cells): 1.24 µM; Emax (mGFP-K-RASG12V; MDCK cells, 48 h, listed as 15a): 0.83 and 0.83 ± 0.02; fold potency loss / decreased potency (mGFP-K-RASG12V; versus 12f (NY0244)): 12 fold
COc1ccc([C@@H](C)N(CC=C(c2ccccc2)c2ccccc2)CCCO)cc1 [NY0479, (R)-3-((3,3-diphenylallyl)(1-(4-methoxyphenyl)ethyl)amino)propan-1-ol] | 0.871 | No | 1.59 | –
COc1ccc([C@@H](C)N(CC=C(c2ccccc2)c2ccccc2)CCCN2CCCC2)cc1 [NY0502, (R)-N-(1-(4-methoxyphenyl)ethyl)-3,3-diphenyl-N-(3-(pyrrolidin-1-yl)propyl)prop-2-en-1-amine] | 0.878 | Yes | 1.78 | –
CCNC(=O)N(CC=C(c1ccccc1)c1ccccc1)[C@H](C)c1ccc(OC)cc1 [NY0504, (R)-1-(3,3-diphenylallyl)-3-ethyl-1-(1-(4-methoxyphenyl)ethyl)urea] | 0.845 | No | 0.91 | –
C[C@H](c1ccc(F)cc1)N(CC=C(c1ccccc1)c1ccccc1)CCN1CCN(C)CC1 [NY0505, (R)-N-(1-(4-fluorophenyl)ethyl)-N-(2-(4-methylpiperazin-1-yl)ethyl)-3,3-diphenylprop-2-en-1-amine] | 0.832 | Yes | 1.51 | IC50 (mGFP-K-RASG12V; MDCK cells): 1.5 µM; Emax (mGFP-K-RASG12V; MDCK cells, 48 h, listed as 15e): 0.83 ± 0.02
CCCCNC(=O)N(CC=C(c1ccccc1)c1ccccc1)[C@H](C)c1ccc(OC)cc1 [NY0507, (R)-3-butyl-1-(3,3-diphenylallyl)-1-(1-(4-methoxyphenyl)ethyl)urea] | 0.858 | No | 1.69 | –
C(CNC1(c2ccccc2)CCCCC1)=C(c1ccccc1)c1ccccc1 [NY0514, N-(3,3-diphenylallyl)-1-phenylcyclohexan-1-amine] | 0.802 | No | – | EC50 (mGFP-K-RASG12V): 1.34 µM
C[C@H](c1ccc(Cl)cc1)N(CC=C(c1ccccc1)c1ccccc1)CCN1CCN(C)CC1 [NY0518, (R)-N-(1-(4-chlorophenyl)ethyl)-N-(2-(4-methylpiperazin-1-yl)ethyl)-3,3-diphenylprop-2-en-1-amine] | 0.695 | Yes | 3.84 | IC50 (mGFP-K-RASG12V; MDCK cells): 3.8 µM; Emax (mGFP-K-RASG12V; MDCK cells, 48 h, listed as 15f): 0.70 ± 0.02
C[C@H](c1ccc(Cl)cc1)N(CC=C(c1ccccc1)c1ccccc1)CCN1CCCC1 [NY0519, (R)-N-(1-(4-chlorophenyl)ethyl)-3,3-diphenyl-N-(2-(pyrrolidin-1-yl)ethyl)prop-2-en-1-amine] | 0.553 | Yes | 4.36 | –
COc1ccc([C@@H](C)N(CC=C(c2ccccc2)c2ccccc2)C(=O)NC2CCCCC2)cc1 [NY0521, (R)-3-cyclohexyl-1-(3,3-diphenylallyl)-1-(1-(4-methoxyphenyl)ethyl)urea] | 0.816 | No | – | –
C[C@H](c1ccc([N+](=O)[O-])cc1)N(CC=C(c1ccccc1)c1ccccc1)CCN1CCN(C)CC1 [NY0522, (R)-N-(2-(4-methylpiperazin-1-yl)ethyl)-N-(1-(4-nitrophenyl)ethyl)-3,3-diphenylprop-2-en-1-amine] | 0.621 | Yes | 5.17 | IC50 (mGFP-K-RASG12V; MDCK cells): 5.2 µM; Emax (mGFP-K-RASG12V; MDCK cells, 48 h, listed as 15h): 0.62 ± 0.02
C[C@@H](NCCN1c2ccccc2CCc2ccccc21)c1ccc(F)cc1 [NY0552, (R)-2-(10,11-dihydro-5H-dibenzo[b,f]azepin-5-yl)-N-(1-(4-fluorophenyl)ethyl)ethan-1-amine] | 0.426 | No | 4.05 | –
C[C@@H](NCCN1c2ccccc2CCc2ccccc21)c1ccccc1 [NY0553, (R)-2-(10,11-dihydro-5H-dibenzo[b,f]azepin-5-yl)-N-(1-phenylethyl)ethan-1-amine] | 0.452 | No | – | –
COC(=O)[C@@H](c1ccccc1)N(CC=C(c1ccccc1)c1ccccc1)C(=O)NC(C)(C)C [NY0554, methyl (R)-2-(3-(tert-butyl)-1-(3,3-diphenylallyl)ureido)-2-phenylacetate] | 0.327 | Yes (even | 1.2 | –
O=C(O)[C@H](NCC=C(c1ccccc1)c1ccccc1)c1ccccc1 [NY0555, (R)-2-((3,3-diphenylallyl)amino)-2-phenylacetic acid] | 0.332 | No | 4.37 | –
CN1CCN(C(=O)[C@H](NCC=C(c2ccccc2)c2ccccc2)c2ccccc2)CC1 [NY0557, (R)-2-((3,3-diphenylallyl)amino)-1-(4-methylpiperazin-1-yl)-2-phenylethan-1-one] | 0.732 | No | – | –
COC(=O)[C@H](CC(C)C)NC(=O)[C@H](NCC=C(c1ccccc1)c1ccccc1)c1ccccc1 [NY0566, methyl ((R)-2-((3,3-diphenylallyl)amino)-2-phenylacetyl)-L-leucinate] | 0.718 | No | 5.93 | –
CC(=O)NNC(=O)[C@H](NCC=C(c1ccccc1)c1ccccc1)c1ccccc1 [NY0568, (R)-N′-acetyl-2-((3,3-diphenylallyl)amino)-2-phenylacetohydrazide] | 0.364 | No | – | –
NC(=O)[C@H](NCC=C(c1ccccc1)c1ccccc1)c1ccccc1 [NY0569, (R)-2-((3,3-diphenylallyl)amino)-2-phenylacetamide] | 0.321 | No | – | –
Cc1nnc([C@H](NCC=C(c2ccccc2)c2ccccc2)c2ccccc2)o1 [NY0570, (R)-N-((5-methyl-1,3,4-oxadiazol-2-yl)(phenyl)methyl)-3,3-diphenylprop-2-en-1-amine] | 0.397 | No | – | –
C[C@@H](NCC(=O)N1c2ccccc2Sc2ccccc21)c1ccccc1 [NY0572, (R)-1-(10H-phenothiazin-10-yl)-2-((1-phenylethyl)amino)ethan-1-one] | 0.565 | No | – | –
C[C@@H](NCC(=O)N1c2ccccc2Sc2ccccc21)c1ccc(F)cc1 [NY0573, (R)-2-((1-(4-fluorophenyl)ethyl)amino)-1-(10H-phenothiazin-10-yl)ethan-1-one] | 0.733 | No | 1.75 | –
C[C@@H](NCCN1c2ccccc2Sc2ccccc21)c1ccccc1 [NY0574, (R)-N-(2-(10H-phenothiazin-10-yl)ethyl)-1-phenylethan-1-amine] | 0.842 | No | 4.82 | –
C[C@@H](NCCN1c2ccccc2Sc2ccccc21)c1ccc(F)cc1 [NY0575, (R)-N-(2-(10H-phenothiazin-10-yl)ethyl)-1-(4-fluorophenyl)ethan-1-amine] | 0.484 | No | 4.3 | –
C[C@@H](NCC(=O)N1c2ccccc2CCc2ccccc21)c1ccc(F)cc1 [NY0583, (R)-1-(10,11-dihydro-5H-dibenzo[b,f]azepin-5-yl)-2-((1-(4-fluorophenyl)ethyl)amino)ethan-1-one] | 0.725 | No | 3.91 | –
C[C@@H](NCC(=O)N1c2ccccc2CCc2ccccc21)c1ccccc1 [NY0584, (R)-1-(10,11-dihydro-5H-dibenzo[b,f]azepin-5-yl)-2-((1-phenylethyl)amino)ethan-1-one] | 0.697 | No | 6.94 | –
COc1ccc([C@@H](C)N(CC=C(c2ccccc2)c2ccccc2)CCN2CCN(C(=O)NC(C)(C)C)CC2)cc1 [NY0587, (R)-N-(tert-butyl)-4-(2-((3,3-diphenylallyl)(1-(4-methoxyphenyl)ethyl)amino)ethyl) piperazine-1-carboxamide] | 0.827 | No | 1.83 | –
